Several values for one entry are separate records, joined by “and”; a condition that tells them apart may be missing. Equal values may be shown once.
Legend:
UGT1A4 = molecular target: T1, UGT1A4 (Homo sapiens, UniProt P22310); experiment: Prediction of DDI risk (AUCi/AUC) from in vitro data, UGT1A4 substrates; set-up: purchased BD Gentest (Woburn, MA); host or cells: baculovirus-infected insect cells; details: fm is 1
T1 sequence (P22310 29-534): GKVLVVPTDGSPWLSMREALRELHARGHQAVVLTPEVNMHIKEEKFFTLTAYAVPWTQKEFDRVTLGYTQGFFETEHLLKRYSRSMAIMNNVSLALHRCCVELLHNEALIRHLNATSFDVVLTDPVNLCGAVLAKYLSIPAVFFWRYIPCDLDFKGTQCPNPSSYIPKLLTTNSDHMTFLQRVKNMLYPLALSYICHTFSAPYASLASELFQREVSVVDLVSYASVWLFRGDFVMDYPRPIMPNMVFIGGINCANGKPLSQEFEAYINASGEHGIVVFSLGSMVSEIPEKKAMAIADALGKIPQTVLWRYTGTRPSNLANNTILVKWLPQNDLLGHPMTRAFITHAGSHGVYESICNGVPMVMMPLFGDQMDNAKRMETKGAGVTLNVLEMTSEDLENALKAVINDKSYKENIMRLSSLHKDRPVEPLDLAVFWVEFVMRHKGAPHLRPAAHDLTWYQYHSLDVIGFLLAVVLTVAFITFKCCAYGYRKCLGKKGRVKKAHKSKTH
Method: The ratio was calculated based on the eq.

UGT1A1 [1] = molecular target: T2, UGT1A1 (Homo sapiens, UniProt P22309); details: SN-38 substrate
T2 sequence (P22309 26-533): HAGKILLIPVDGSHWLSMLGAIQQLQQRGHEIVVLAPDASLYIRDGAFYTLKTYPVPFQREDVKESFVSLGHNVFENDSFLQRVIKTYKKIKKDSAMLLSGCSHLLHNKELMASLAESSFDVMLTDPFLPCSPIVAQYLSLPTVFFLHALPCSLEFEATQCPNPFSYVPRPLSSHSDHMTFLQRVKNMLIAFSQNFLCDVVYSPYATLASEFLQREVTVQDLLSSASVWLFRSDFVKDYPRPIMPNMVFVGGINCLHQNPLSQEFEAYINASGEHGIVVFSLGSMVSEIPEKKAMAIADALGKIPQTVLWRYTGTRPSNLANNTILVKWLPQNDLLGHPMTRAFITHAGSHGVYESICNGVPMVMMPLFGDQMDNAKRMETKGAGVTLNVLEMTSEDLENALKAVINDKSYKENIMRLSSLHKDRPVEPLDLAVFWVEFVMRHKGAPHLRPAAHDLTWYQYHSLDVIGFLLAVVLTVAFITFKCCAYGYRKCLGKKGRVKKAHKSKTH
Method: SN-38 glucuronidation activity was determined with a slight modification of a previously published method[13].

UGT1A1 [2] = molecular target: T2, UGT1A1; details: fm is 1; clinical doses
[3] = clinical study; ref [16]; cited from earlier work
UGT1A9 = molecular target: T3, UGT1A9 (Homo sapiens, UniProt O60656); details: 4-MU substrate
T3 sequence (O60656 26-530): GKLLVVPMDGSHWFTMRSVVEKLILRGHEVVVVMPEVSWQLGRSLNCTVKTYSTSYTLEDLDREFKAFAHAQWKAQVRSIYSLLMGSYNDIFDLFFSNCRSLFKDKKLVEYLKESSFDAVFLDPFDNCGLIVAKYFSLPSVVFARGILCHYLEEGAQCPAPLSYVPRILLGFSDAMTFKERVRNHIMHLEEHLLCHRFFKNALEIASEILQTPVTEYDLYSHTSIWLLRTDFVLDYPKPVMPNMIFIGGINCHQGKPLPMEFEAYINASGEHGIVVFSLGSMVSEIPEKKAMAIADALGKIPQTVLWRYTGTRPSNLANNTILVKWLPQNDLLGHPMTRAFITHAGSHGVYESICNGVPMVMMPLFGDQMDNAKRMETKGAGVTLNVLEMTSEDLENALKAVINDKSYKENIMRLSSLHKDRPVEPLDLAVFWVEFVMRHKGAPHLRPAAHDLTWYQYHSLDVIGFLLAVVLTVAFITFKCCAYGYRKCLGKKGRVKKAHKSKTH

**Q.** For `CNC(=O)c1ccccc1Sc1ccc2c(/C=C/c3ccccn3)n[nH]c2c1` [Axitinib, axitinib], which “Predicted AUCi/AUC ratio of UGT1A4 substrates” value (UGT1A4) is on record?
**A.** ~1

**Q.** Which “inhibition type, UGT1A1” value (UGT1A1 [1]) does the source give for `CS(=O)(=O)CCNCc1ccc(-c2ccc3ncnc(Nc4ccc(OCc5cccc(F)c5)c(Cl)c4)c3c2)o1` [Lapatinib, lapatinib] here?
**A.** non-competitive

**Q.** And the “Predicted increase in AUC of UGT1A1 substrates (4-MU and SN-38)” value (UGT1A1 [2])?
**A.** ~ 25%

**Q.** And the “Increase in the AUC of SN-38 on co-administration with irinotecan” value [3]?
**A.** 41% and ~ 40%

**Q.** With `COc1cc2c(Nc3ccc(Br)cc3F)ncnc2cc1OCC1CCN(C)CC1` [Vandetanib, vandetanib] as the molecule, how does the “inhibition type, UGT1A9” value (UGT1A9) read?
**A.** mixed

Source: PMC4672351, “Drug-Drug Interaction Potentials of Tyrosine Kinase Inhibitors via Inhibition of UDP-Glucuronosyltransferases” (Scientific Reports, 2015)
